Measurements from patent US11622970B2, “BCL-2 inhibitors and their use as pharmaceuticals” (PRELUDE THERAPEUTICS INCORPORATED, priority 2020, dated 2023).

The molecules below were run against BCL-2 recombinant protein (Homo sapiens, UniProt P10415) (assay: Cell free Bcl-2:Bak affinity assay (Bcl-2 Bak), HTRF competition of FAM-Bak peptide). Conditions: 1 μM compound, 4 nM BCL-2 recombinant protein, 100 nM FAM-Bak, read-out: potency (% inhibition at 1 μM).
Chain of BCL-2 recombinant protein (P10415 whole entry): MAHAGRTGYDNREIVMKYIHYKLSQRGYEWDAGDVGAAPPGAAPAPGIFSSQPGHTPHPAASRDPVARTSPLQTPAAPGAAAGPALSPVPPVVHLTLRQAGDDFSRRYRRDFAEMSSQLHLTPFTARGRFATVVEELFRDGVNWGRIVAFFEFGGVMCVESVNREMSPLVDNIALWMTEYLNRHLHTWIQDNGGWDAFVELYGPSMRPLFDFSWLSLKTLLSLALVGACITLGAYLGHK
Type: binding
Experimental: Biological Assays: Cell Free Bcl-2:Bak Affinity Assay (Bcl-2 Bak)
The assay is based on the competition of fluorescently labeled peptide binding to BCL-2 and the binding is monitored by HTRF signals between anti-GST-Tb and FAM-peptide using GST-Tag BCL proteins. Testing compounds were dissolved in DMSO at 10 mM and tested in 10-concentration IC50 mode. The compounds of interest in DMSO were added in 3-fold serial dilution to each well containing 4 nM of BCL-2 recombinant protein, 20 mM K Phosphate, pH 7.5, 50 mM NaCl, 1 mM EDTA, 0.005% Triton X-100, by using acoustic technology (Labcyte echo 550), After 10 minutes incubation at room temperature, 100 nM of FAM-Bak was added and incubated for another 10 minutes before addition of Anti-GST-Tb. The plate was then sealed and further incubated at room temperature for 60 minutes in the dark before reading. Percentage of inhibition was calculated by % inhibition=100×(FDMSO−F)/(FDMSO−FPC), in which FDMSO is DMSO control and FPC is a positive control. IC50 values were determined from dose-response curve by fitting the percent inhibition against compound concentration using GraphPad Prism software.
CC1(C)CCC(CN2CCN(c3ccc(S(=O)(=O)NC(=O)c4ccc([N+](=O)[O-])c(OCc5ccccc5)c4)cc3)CC2)=C(c2ccc(Cl)cc2)C1 [Example 40, 3-(benzyloxy)-N-([4-[4-[[2-(4-chlorophenyl)-4,4-dimethylcyclohexen-1-yl]methyl]piperazin-1-yl]phenyl]sulfonyl)-4-nitrobenzamide] showed an inhibition at 1 µM of 50 to 90%. Work on CC1(C)CCC(CN2CCN(c3ccc(S(=O)(=O)NC(=O)c4cc([N+](=O)[O-])c(NCC5CCOCC5)cc4Cl)cc3)CC2)=C(c2ccc(Cl)cc2)C1 [Example 41, 2-Chloro-N-[4-[4-[[2-(4-chlorophenyl)-4,4-dimethylcyclohexen-1-yl]methyl]piperazin-1-yl]phenyl]sulfonyl-5-nitro-4-(tetrahydropyran-4-ylmethylamino)benzamide] yielded an inhibition at 1 µM of 50 to 90%. For Cc1c(Cl)c(C(=O)NS(=O)(=O)c2ccc(N3CCN(CC4=C(c5ccc(Cl)cc5)CC(C)(C)CC4)CC3)cc2)cc([N+](=O)[O-])c1NCC1CCOCC1 [Example 42, 2-Chloro-N-([4-[4-[[2-(4-chlorophenyl)-4,4-dimethylcyclohexen-1-yl]methyl]piperazin-1-yl]phenyl]sulfonyl)-3-methyl-5-nitro-4-(tetrahydropyran-4-ylmethylamino)benzamide], the inhibition at 1 µM was over 90%. Molecule Cc1nn(C)c(C)c1-c1nc(C(=O)NS(=O)(=O)c2ccc(N3CCN(CC4=C(c5ccc(Cl)cc5)CC(C)(C)CC4)CC3)cc2)ccc1F [Example 44, N-[4-[4-[[2-(4-chlorophenyl)-4,4-dimethylcyclohexen-1-yl]methyl]piperazin-1-yl]phenyl]sulfonyl-5-fluoro-6-(1,3,5-trimethylpyrazol-4-yl)pyridine-2-carboxamide] has an inhibition at 1 µM of 50 to 90%. Work on Cn1cc(-c2nc(C(=O)NS(=O)(=O)c3ccc(N4CCN(CC5=C(c6ccc(Cl)cc6)CC(C)(C)CC5)CC4)cc3)ccc2F)cn1 [Example 45, N-[4-[4-[[2-(4-chlorophenyl)-4,4-dimethylcyclohexen-1-yl]methyl]piperazin-1-yl]phenyl]sulfonyl-5-fluoro-6-(1-methyl-1H-pyrazol-4-yl)pyridine-2-carboxamide] yielded an inhibition at 1 µM of 50 to 90%. For CC1(C)CCC(CN2CCN(c3ccc(S(=O)(=O)NC(=O)c4ccc(F)c(-n5ccnc5)n4)cc3)CC2)=C(c2ccc(Cl)cc2)C1 [Example 46, N-[4-[4-[[2-(4-chlorophenyl)-4,4-dimethylcyclohexen-1-yl]methyl]piperazin-1-yl]phenyl]sulfonyl-5-fluoro-6-(1H-imidazol-1-yl)pyridine-2-carboxamide], the inhibition at 1 µM was 50 to 90%. CC1(C)CCC(CN2CCN(c3ccc(S(=O)(=O)NC(=O)c4ccc(F)c(-c5cnc6c(c5)CC(=O)N6)n4)cc3)CC2)=C(c2ccc(Cl)cc2)C1 [Example 47, N-[4-[4-[[2-(4-chlorophenyl)-4,4-dimethylcyclohexen-1-yl]methyl]piperazin-1-yl]phenyl]sulfonyl-5-fluoro-6-(2-oxo-2,3-dihydro-1H-pyrrolo[2,3-b]pyridin-5-yl)pyridine-2-carboxamide] showed an inhibition at 1 µM of 50 to 90%. In the case of CC1(C)CCC(CN2CCN(c3ccc(S(=O)(=O)NC(=O)c4ccc(F)c(-c5ccc6[nH]ncc6c5)n4)cc3)CC2)=C(c2ccc(Cl)cc2)C1 [Example 48, N-[4-[4-[[2-(4-chlorophenyl)-4,4-dimethylcyclohexen-1-yl]methyl]piperazin-1-yl]phenyl]sulfonyl-5-fluoro-6-(1H-indazol-5-yl)pyridine-2-carboxamide], the inhibition at 1 µM is reported as 50 to 90%. CC1(C)CCC(CN2CCN(c3ccc(S(=O)(=O)NC(=O)c4ccc(F)c(-c5ccc6[nH]nnc6c5)n4)cc3)CC2)=C(c2ccc(Cl)cc2)C1 [Example 49, 6-(1H-benzo[d][1,2,3]triazol-5-yl)-N-[4-[4-[[2-(4-chlorophenyl)-4,4-dimethylcyclohexen-1-yl]methyl]piperazin-1-yl]phenyl]sulfonyl-5-fluoro pyridine-2-carboxamide] showed an inhibition at 1 µM of over 90%. With Cn1ncc2cc(-c3nc(C(=O)NS(=O)(=O)c4ccc(N5CCN(CC6=C(c7ccc(Cl)cc7)CC(C)(C)CC6)CC5)cc4)ccc3F)ccc21 [Example 50, N-[4-[4-[[2-(4-chlorophenyl)-4,4-dimethylcyclohexen-1-yl]methyl]piperazin-1-yl]phenyl]sulfonyl-5-fluoro-6-(1-methyl-1H-indazol-5-yl)pyridine-2-carboxamide] the inhibition at 1 µM was 50 to 90%. CC1(C)CCC(CN2CCN(c3ccc(S(=O)(=O)NC(=O)c4ccc([N+](=O)[O-])c(OCc5ccccc5)n4)cc3)CC2)=C(c2ccc(Cl)cc2)C1 [Example 51, 6-(benzyloxy)-N-[4-[4-[[2-(4-chlorophenyl)-4,4-dimethylcyclohexen-1-yl]methyl]piperazin-1-yl]phenyl]sulfonyl-5-nitropyridine-2-carboxamide] was tested, and the inhibition at 1 µM was 50 to 90%. For CC1(C)CCC(CN2CCN(c3ccc(S(=O)(=O)NC(=O)c4ccc(COc5ccccc5)c([N+](=O)[O-])c4)cc3)CC2)=C(c2ccc(Cl)cc2)C1 [Example 52, N-[4-[4-[[2-(4-chlorophenyl)-4,4-dimethylcyclohexen-1-yl]methyl]piperazin-1-yl]phenyl]sulfonyl-3-nitro-4-(phenoxymethyl)benzamide], the inhibition at 1 µM was 50 to 90%. With CC1(C)CCC(CN2CCN(c3ccc(S(=O)(=O)NC(=O)c4ccc(F)c(OCc5ccccc5)c4)cc3)CC2)=C(c2ccc(Cl)cc2)C1 [Example 53, 3-(benzyloxy)-N-[4-[4-[[2-(4-chlorophenyl)-4,4-dimethylcyclohexen-1-yl]methyl]piperazin-1-yl]phenyl]sulfonyl-4-fluorobenzamide] the inhibition at 1 µM was 50 to 90%.

Same assay, conditions: 10-concentration IC50 mode, 4 nM BCL-2 recombinant protein, 100 nM FAM-Bak, read-out: potency (IC50)
Work on CC1(C)CCC(CN2CCN(c3ccc(S(=O)(=O)NC(=O)c4ccc(F)c(COc5ccc(Cl)cc5)c4)cc3)CC2)=C(c2ccc(Cl)cc2)C1 [Example 37, N-([4-[4-[[2-(4-chlorophenyl)-4,4-dimethylcyclohexen-1-yl]methyl]piperazin-1-yl]phenyl]sulfonyl)-3-((4-chlorophenoxy)methyl)-4-fluorobenzamide] yielded an IC50 of 10 to 100 nM. In the case of CC1(C)CCC(CN2CCN(c3ccc(S(=O)(=O)NC(=O)c4ccc([N+](=O)[O-])c(COc5ccc(Cl)cc5)c4)cc3)CC2)=C(c2ccc(Cl)cc2)C1 [Example 38, N-([4-[4-[[2-(4-chlorophenyl)-4,4-dimethylcyclohexen-1-yl]methyl]piperazin-1-yl]phenyl]sulfonyl)-3-((4-chlorophenoxy)methyl)-4-nitrobenzamide], the IC50 is reported as 10 to 100 nM. CC1(C)CCC(CN2CCN(c3ccc(S(=O)(=O)NC(=O)c4ccc(COc5ccc(Cl)cc5)c([N+](=O)[O-])c4)cc3)CC2)=C(c2ccc(Cl)cc2)C1 [Example 39, N-([4-[4-[[2-(4-chlorophenyl)-4,4-dimethylcyclohexen-1-yl]methyl]piperazin-1-yl]phenyl]sulfonyl)-4-((4-chlorophenoxy)methyl)-3-nitrobenzamide] gave an IC50 of 10 to 100 nM. For CCNc1c([N+](=O)[O-])cc(C(=O)NS(=O)(=O)c2ccc(N3CCN(CC4=C(c5ccc(Cl)cc5)CC(C)(C)CC4)CC3)cc2)c(Cl)c1C [Example 43, 2-chloro-N-[4-[4-[[2-(4-chlorophenyl)-4,4-dimethylcyclohexen-1-yl]methyl]piperazin-1-yl]phenyl]sulfonyl-4-(ethylamino)-3-methyl-5-nitrobenzamide], the IC50 was 100 to 1000 nM.
